Experimental data: patent publication US10227357B2, “Compounds and methods for kinase modulation, and indications therefor” (Plexxikon Inc., priority 2012, dated 2019)

Biological target: T1, c-kit mutant D816V (Homo sapiens, UniProt P10721, D816V/DEL694-753)
T1 construct: residues 551-934, kinase insertion domain residues 694-753 deleted; 6x-histidine (N); made in house; host or cells: E. coli Arctic Express (DE3) RIL (Stratagene)
Assay: c-Kit mutant D816V biochemical assay, AlphaScreen
Settings: c-kit D816V biochemical inhibitory activity; read-out: Biochemical activity (IC50 μM) Kit D816V
Procedure: Compounds to be tested were dissolved in DMSO to a concentration of 20 mM. These were diluted 30 μl into 120 μl of DMSO (4 mM) and 1 μl was added to an assay plate. These were then serially diluted 1:3 (50 μl to 100 μl DMSO) for a total of 8 points. Plates were prepared such that each kinase reaction is 20 μl in 1× kinase buffer (25 mM HEPES, pH 7.2, 8 mM MgCl2, 2 mM MnCl2, 50 mM NaCl, 0.01% Brij, 1 mM DTT, 0.01% BSA), 5% DMSO and 10 μM ATP. […] After incubation of the kinase reaction for 30 minutes at room temperature, 5 μl of donor beads (Streptavidin coated beads (Perkin Elmer Life Science) final concentration 7.5 μg/ml) in stop buffer (25 mM Hepes pH 7.5, 100 mM EDTA, 0.01% BSA) was added, the sample was mixed and incubated for 20 minutes at room temperature before adding 5 μl of acceptor beads (PY20 coated beads (Perkin Elmer Life Science) final concentration 7.5 μg/ml) in stop buffer. The samples were incubated for 60 minutes at room temperature and the signal per well was read on EnVision reader. […] The signal vs. compound concentration was used to determine the IC50.
Cells were grown in Terrific Broth (TB) media to an OD600 of 0.6 at 37° C. at which temperature was reduced to 10° C., protein was induced with 1.0 mM IPTG for 18 hours and harvested by centrifugation at 8000×g for 20 minutes. Cells were re-suspended in 0.1M KPO4 pH 8.0, 250 mM NaCl, 10% Glycerol, 0.75% NP-40, 25 mM Imidazole, 5 mM BME with 0.2 mg/ml Lysosyme, 2.0 mM PMSF, 25 μg/ml DNAse I, incubated in ice for 30 minutes and lysed with a cell disruptor (MicroFluidics). The lysate was clarified by centrifugation at 20,000×g for 2 hours. The protein was captured with Talon resin (Clontech). Contaminating proteins were washed off with 25 mM Tris-HCl pH 8.3, 250 mM NaCl, 15% Glycerol, 1% Triton X-100, and protein eluted using 100 mM EDTA. The protein was further purified using Gel Filtration column 26/600 Superdex 200 (GE) in 50 mM Tris-HCl, pH 8.0, 250 mM NaCl, 15% Glycerol, 5 mM BME. The protein was aliquoted and flash-frozen in liquid Nitrogen.

T1 sequence (P10721 with tags, fused parts or gaps DEL694-753/D816V): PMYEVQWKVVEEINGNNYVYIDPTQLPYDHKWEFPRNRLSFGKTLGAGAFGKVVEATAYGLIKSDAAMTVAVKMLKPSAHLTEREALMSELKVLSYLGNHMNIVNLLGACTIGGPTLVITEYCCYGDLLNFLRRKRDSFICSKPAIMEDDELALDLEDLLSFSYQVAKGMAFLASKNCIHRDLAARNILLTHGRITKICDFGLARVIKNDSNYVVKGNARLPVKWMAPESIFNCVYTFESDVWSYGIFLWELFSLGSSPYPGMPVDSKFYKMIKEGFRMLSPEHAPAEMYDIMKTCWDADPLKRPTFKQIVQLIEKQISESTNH

Compound	IC50
COc1cccc(CNC(=O)N2CCN(c3ncnc4[nH]c(-c5ccc(F)cc5)cc34)CC2)n1 [P-0122, 4-[6-(4-fluorophenyl)-7H-pyrrolo[2,3-d]pyrimidin-4-yl]-N-[(6-methoxy-2-pyridyl)methyl]piperazine-1-carboxamide]	1 to 10 µM
C[C@@H](NC(=O)N1CCN(c2ncnc3[nH]c(-c4ccc(F)cc4)cc23)CC1)c1ccc(F)cc1 [P-0147, N-[(1R)-1-(4-fluorophenyl)ethyl]-4-[6-(4-fluorophenyl)-7H-pyrrolo[2,3-d]pyrimidin-4-yl]piperazine-1-carboxamide]	1 to 10 µM
COc1cccc(NC(=O)N2CCN(c3ncnc4[nH]c(-c5ccccc5)cc34)CC2)c1 [P-0238, N-(3-methoxyphenyl)-4-(6-phenyl-7H-pyrrolo[2,3-d]pyrimidin-4-yl)piperazine-1-carboxamide]	10 to 200 µM
CC(=O)Nc1ccc(-c2ncnc3cc(-c4ccc(F)cc4)sc23)cc1 [P-0632, N-[4-[6-(4-fluorophenyl)thieno[3,2-d]pyrimidin-4-yl]phenyl]acetamide]	10 to 200 µM
O=S(=O)(Nc1ccc(-c2ncnc3[nH]c(-c4ccc(F)cc4)cc23)cc1F)N1CCCC1 [P-0405, N-[2-fluoro-4-[6-(4-fluorophenyl)-7H-pyrrolo[2,3-d]pyrimidin-4-yl]phenyl]pyrrolidine-1-sulfonamide]	10 to 200 µM
C[C@H](NC(=O)N1CCN(c2ncnc3cc(-c4ccc(F)cc4)sc23)C[C@H]1C)c1ccc(F)cc1 [P-0601, (2R)-N-[(1S)-1-(4-fluorophenyl)ethyl]-4-[6-(4-fluorophenyl)thieno[3,2-d]pyrimidin-4-yl]-2-methyl-piperazine-1-carboxamide]	1 to 10 µM
CC(C)(C)Oc1ccc(NC(=O)N2CCN(c3ncnc4[nH]c(-c5ccc(Cl)cc5)cc34)CC2)cc1 [P-0017, N-(4-tert-butoxyphenyl)-4-[6-(4-chlorophenyl)-7H-pyrrolo[2,3-d]pyrimidin-4-yl]piperazine-1-carboxamide]	10 to 200 µM
CC(NC(=O)N1CCN(c2ncnc3[nH]c(-c4ccc(Cl)cc4)cc23)C[C@H]1C)c1ccc(Cl)cc1 (stereo in doubt) [P-0021, (2R)-N-[(1S)-1-(4-chlorophenyl)ethyl]-4-[6-(4-chlorophenyl)-7H-pyrrolo[2,3-d]pyrimidin-4-yl]-2-methyl-piperazine-1-carboxamide]	1 to 10 µM
Cc1ccc(NS(=O)(=O)N2CCN(c3ncnc4[nH]c(-c5ccc(Cl)cc5)cc34)CC2)cc1 [P-0142, 4-[6-(4-chlorophenyl)-7H-pyrrolo[2,3-d]pyrimidin-4-yl]-N-(p-tolyl)piperazine-1-sulfonamide]	10 to 200 µM
c1nc(-c2cnc(C3CC3)nc2)c2cc(-c3cnc(C4CC4)nc3)[nH]c2n1 [P-0384, 4,6-bis(2-cyclopropylpyrimidin-5-yl)-7H-pyrrolo[2,3-d]pyrimidine]	10 to 200 µM
Cc1ccc(S(=O)(=O)NC2CCN(c3ncnc4[nH]c(-c5cn(C)nc5C)cc34)CC2)cc1 [P-0659, N-[1-[6-(1,3-dimethylpyrazol-4-yl)-7H-pyrrolo[2,3-d]pyrimidin-4-yl]-4-piperidyl]-4-methyl-benzenesulfonamide]	0.0001 to 1 µM
COc1cccc(CNC(=O)N2CC3CCC2CN3c2ncnc3cc(-c4ccc(F)cc4)sc23)c1 (centres unmarked) [P-0547, 5-[6-(4-fluorophenyl)thieno[3,2-d]pyrimidin-4-yl]-N-[(3-methoxyphenyl)methyl]-2,5-diazabicyclo[2.2.2]octane-2-carboxamide]	0.0001 to 1 µM
O=S(=O)(NC1CCN(c2ncnc3[nH]c(-c4ccc(Cl)cc4)cc23)CC1)c1cccc(OC(F)(F)F)c1 [P-0499, N-[1-[6-(4-chlorophenyl)-7H-pyrrolo[2,3-d]pyrimidin-4-yl]-4-piperidyl]-3-(trifluoromethoxy)benzenesulfonamide]	1 to 10 µM
COc1cc2ncnc(-c3ccc(NS(=O)(=O)N4CCCC4)c(F)c3)c2cc1OC [P-0274, N-[4-(6,7-dimethoxyquinazolin-4-yl)-2-fluoro-phenyl]pyrrolidine-1-sulfonamide]	1 to 10 µM
C[C@H](NC(=O)N1CCN(c2ncnc3[nH]c(-c4ccc(F)cc4)cc23)CC1)c1cccc(C(F)(F)F)c1 [P-0033, 4-[6-(4-fluorophenyl)-7H-pyrrolo[2,3-d]pyrimidin-4-yl]-N-[(1S)-1-[3-(trifluoromethyl)phenyl]ethyl]piperazine-1-carboxamide]	0.0001 to 1 µM
COc1cccc(CNC(=O)N2CC3CCC(C2)N3c2ncnc3cc(-c4ccc(F)cc4)sc23)c1 [P-0551, 8-[6-(4-fluorophenyl)thieno[3,2-d]pyrimidin-4-yl]-N-[(3-methoxyphenyl)methyl]-3,8-diazabicyclo[3.2.1]octane-3-carboxamide]	1 to 10 µM
Cc1cc2c(C3=CCC(NS(=O)(=O)c4ccc(OC(F)F)cc4)CC3)ncnc2[nH]1 (centres unmarked) [P-0653, 4-(difluoromethoxy)-N-[4-(6-methyl-7H-pyrrolo[2,3-d]pyrimidin-4-yl)cyclohex-3-en-1-yl]benzenesulfonamide]	1 to 10 µM
O=S(=O)(Nc1ccc(-c2ncnc3[nH]c(-c4ccc(F)cc4F)cc23)c(F)c1)c1ccc(F)cc1 [P-0332, N-[4-[6-(2,4-difluorophenyl)-7H-pyrrolo[2,3-d]pyrimidin-4-yl]-3-fluoro-phenyl]-4-fluoro-benzenesulfonamide]	0.0001 to 1 µM
Cc1ccc(NC(=O)N2CCN(c3ncnc4[nH]c(-c5ccncc5)cc34)C[C@H]2C)cn1 [P-0055, (2R)-2-methyl-N-(6-methyl-3-pyridyl)-4-[6-(4-pyridyl)-7H-pyrrolo[2,3-d]pyrimidin-4-yl]piperazine-1-carboxamide]	0.0001 to 1 µM
C[C@H](NC(=O)N1CCN(c2ncnc3[nH]c(-c4ccc(F)cc4)cc23)CC1)c1ccc(F)cc1 [P-0126, N-[(1S)-1-(4-fluorophenyl)ethyl]-4-[6-(4-fluorophenyl)-7H-pyrrolo[2,3-d]pyrimidin-4-yl]piperazine-1-carboxamide]	0.0001 to 1 µM
O=C(NCc1cccc(OC(F)(F)F)c1)N1CCN(c2ncnc3[nH]c(-c4ccc(F)cc4)cc23)CC1 [P-0076, 4-[6-(4-fluorophenyl)-7H-pyrrolo[2,3-d]pyrimidin-4-yl]-N-[[3-(trifluoromethoxy)phenyl]methyl]piperazine-1-carboxamide]	1 to 10 µM
CCNc1ccc(-c2ncnc3[nH]c(-c4ccc(F)cc4)cc23)cn1 [P-0417, N-ethyl-5-[6-(4-fluorophenyl)-7H-pyrrolo[2,3-d]pyrimidin-4-yl]pyridin-2-amine]	1 to 10 µM
CCCc1ccc(S(=O)(=O)NC2CC=C(c3ncnc4[nH]c(C)cc34)CC2)cc1 (centres unmarked) [P-0651, N-[4-(6-methyl-7H-pyrrolo[2,3-d]pyrimidin-4-yl)cyclohex-3-en-1-yl]-4-propyl-benzenesulfonamide]	0.0001 to 1 µM
Cc1cc2c(-c3ccc(S(=O)(=O)NC4CC4)cc3)ncnc2[nH]1 [P-0380, N-cyclopropyl-4-(6-methyl-7H-pyrrolo[2,3-d]pyrimidin-4-yl)benzenesulfonamide]	10 to 200 µM
COc1cccc([C@H](C)NC(=O)N2CCN(c3ncnc4[nH]c(-c5ccc(Cl)cc5)cc34)CC2)c1 [P-0038, 4-[6-(4-chlorophenyl)-7H-pyrrolo[2,3-d]pyrimidin-4-yl]-N-[(1S)-1-(3-methoxyphenyl)ethyl]piperazine-1-carboxamide]	0.0001 to 1 µM
C[C@H](NC(=O)N1CCN(c2ncnc3[nH]c(-c4ccc(C#N)cc4)cc23)CC1)c1ccc(F)cc1 [P-0696, 4-[6-(4-cyanophenyl)-7H-pyrrolo[2,3-d]pyrimidin-4-yl]-N-[(1S)-1-(4-fluorophenyl)ethyl]piperazine-1-carboxamide]	0.0001 to 1 µM
O=C(NCCc1ccccc1)N1CCN(c2ncnc3[nH]c(-c4ccc(F)cc4)cc23)CC1 [P-0162, 4-[6-(4-fluorophenyl)-7H-pyrrolo[2,3-d]pyrimidin-4-yl]-N-phenethyl-piperazine-1-carboxamide]	10 to 200 µM
O=S(=O)(NC1CCN(c2ncnc3[nH]c(-c4ccc(Cl)cc4)cc23)CC1)c1cc2ccccc2s1 [P-0467, N-[1-[6-(4-chlorophenyl)-7H-pyrrolo[2,3-d]pyrimidin-4-yl]-4-piperidyl]benzothiophene-2-sulfonamide]	1 to 10 µM
C[C@H](NC(=O)N1CCN(c2ncnc3[nH]c(-c4ccc(F)cc4)cc23)CC1)c1cccc(F)c1 [P-0036, N-[(1S)-1-(3-fluorophenyl)ethyl]-4-[6-(4-fluorophenyl)-7H-pyrrolo[2,3-d]pyrimidin-4-yl]piperazine-1-carboxamide]	0.0001 to 1 µM
